pIC50: −log10 of the molar value.
Tests used:
Cav3.1 = biological target: T1, Cav3.1 (Homo sapiens, UniProt O43497); experiment: Whole-cell patch clamp of T-type Cav3.1 channel expressed in HEK293 cells; assay type: cell-based; conditions: Table 2
T1 construct: expressed in transfected cells; host or cells: HEK-293, tetracycline inducible expression system (Invitrogen)
Experimental: (§1) Cav3.1, Cav3.2 or Cav3.3 channels were expressed in human embryonic kidney (HEK)-293 cells using a tetracycline inducible expression system (Invitrogen). Cells were maintained in 25 cm^2 tissue culture flasks at 37° C., 5% CO2, and 100% relative humidity in D-MEM/F12 (Dulbecco's Modified Eagle Medium/Nutrient Mixture F-12; Gibco) supplemented with fetal bovine serum (FBS, 10% v/v), sodium pyruvate (0.5 mM, Gibco), penicillin-streptomycin (100 U/mL, 100 μg/mL) and Geneticin® Selective antibiotic (G418; 0.5 mg/mL). Cells were detached from the flask base using a non-enzymatic cell dissociation solution (Cellstripper, Corning), removed and re-seeded on to poly-D-lysine coated glass coverslips in 35 mm dishes.
(§2) Whole-cell voltage clamp recordings were performed on rat or mouse DRG neurons within 2 days after acutely dissociation or cultured HEK293 cells expressing T-type channels (encoded by Cav3.1, Cav3.2 or Cav3.3 channels). All experiments were performed at room temperature (around 21° C.). Whole-cell currents were recorded using a MultiClamp 700B amplifier and analyzed offline with pCLAMP10.4 software (Molecular Devices, LLC, Sunnyvale Calif., USA). […] Since the sodium ions were absent in the external solution, tetrodoctoxin was not needed. Calcium currents were recorded at a holding potential of −100 mV and then depolarized to −30 mV for 100 ms to activate either Cav3.1, Cav3.2, or Cav3.3 expressed in HEK cells. An interpulse interval of 10 seconds allowed the channel recovery from inactivation, and achieved stable current recordings. To record sodium (Na^+) currents in DRG neurons, the external solution used the modified Krebs solution specified above. The internal solution was composed (in mM) of 120 CsF, 10 HEPES, 11 EGTA, 1 CaCl2, 1 MgCl2, 10 TEA-Cl, 4 MgATP and 0.3 MgGTP (pH 7.3-7.4 adjusted with CsOH). […] To record potassium currents in DRG neurons, the external solution used the modified Kreb's solution specified above. The internal solution was composed (in mM) of 65 KCl, 80 KF, 5 KOH, 10 EGTA, 2 MgATP (pH 7.3-7.4 adjusted with KOH). Recording electrodes were fabricated using a P-87 puller (Sutter Instrument Co., Novato, Calif., USA). The tip of resistance was 3-4 MQ in bath and the series resistance was less than 10 MΩ after whole cell configuration. All reagents were purchased from Sigma unless specified otherwise. Test compounds were usually applied via a rapid solution exchange system with 8 fine polyplastic tubings (100 μm, OD) glued in a holder in parallel and located closely to the recorded cells. The current responses were normalized to the control, percent inhibition was calculated and sigmoidal dose-response curves were generated using XLFit (IDBS, Surrey, UK) or Prism (GraphPad Software, La Jolla, Calif., US) to calculate IC50 values and Hill slopes using the following equation Y=Bottom+(Top−Bottom)/(1+10^((Log EC50−X)[…])).

Cav3.3 = biological target: T2, Cav3.3 (Homo sapiens, UniProt Q9P0X4); experiment: Whole-cell patch clamp of T-type Cav3.3 channel expressed in HEK293 cells; assay type: cell-based; conditions: Table 2
T2 construct: expressed in transfected cells; host or cells: HEK-293, tetracycline inducible expression system (Invitrogen)
Experimental: as §1, §2

DRG ion channels Na+ = experiment: Sodium currents in DRG neurons, patch clamp; assay type: cell-based, rodent; conditions: Table 2
Experimental: (§3) All the procedures related to animal handling were in strict accordance with NIH guidelines and IACUC approved protocols. Briefly, the spine was taken out and split into two halves from the middle line after sacrificing the mice by decapitation. […] The DRG neurons were minced with fine scissors and incubated at 35° C. for 50 min. […] Finally the cells were dispersed onto poly-1-ornithine-coated cover slips and maintained in a modified Krebs solution with streptomycin sulfate (0.2 mM), Penicillin G Sodium (0.3 mM), and Gentamycin (0.1 mM) at 21° C. […] All experiments were performed at room temperature (around 21° C.). Whole-cell currents were recorded using a MultiClamp 700B amplifier and analyzed offline with pCLAMP10.4 software (Molecular Devices, LLC, Sunnyvale Calif., USA). […] The internal solution was composed (in mM) of 125 CsCl, 10 HEPES (acid), 10 EGTA (ethylene glycol tetraacetic acid), 1 CaCl2, 1 MgCl2, 4 MgATP and 0.3 […] 7.3-7.4 adjusted with CsOH; osmolality verified as 295 mOsm/kg). Since the sodium ions were absent in the external solution, tetrodoctoxin was not needed. […] To record sodium (Na^+) currents in DRG neurons, the external solution used the modified Krebs solution specified above. […] To record potassium currents in DRG neurons, the external solution used the modified Kreb's solution specified above. The internal solution was composed (in mM) of 65 KCl, 80 KF, 5 KOH, 10 EGTA, 2 MgATP (pH 7.3-7.4 adjusted with KOH). Recording electrodes were fabricated using a P-87 puller (Sutter Instrument Co., Novato, Calif., USA). […] All reagents were purchased from Sigma unless specified otherwise. […] Selectivity among the three subtypes of the Cav3 T-type channel, and off-target effects on other key ion channels of the representative example compounds are presented in Table 2. Sodium and potassium channels in the rodent DRG neurons were recorded and tested as described above. The human ether-a-go-go-related gene (hERG) encodes the rapidly activating potassium channel (IKr) contributing to the repolarization of the cardiac action potential. The blockade of hERG can lead to a QT prolongation in the electrocardiogram known as long QT syndrome (Sanguinetti, et al., 1995). Therefore the representative example compounds in Table 2 were tested against the hERG channel.

DRG ion channels K+ = experiment: Potassium currents in DRG neurons, patch clamp; assay type: cell-based, rodent; conditions: Table 2
Experimental: as §3

Cardiac Na+ channels = biological target: T3, Cardiac Na+ channels (Homo sapiens, UniProt Q14524); experiment: Cardiac sodium currents in human iPSC-derived cardiomyocytes; assay type: cell-based; conditions: for pIC50: human iPSC cardiomyocytes
T3 construct: host or cells: human iPSC-derived cardiomyocytes
Experimental: Cardiac sodium channels play a critical role in heart contraction. Inhibition of these sodium channels could potentially cause severe unwanted side effects. Therefore the representative example compounds in Table 2 were tested in cardiac sodium channels. Cardiomyocytes derived from human induced pluripotent stem cells (iPSC-CM) were obtained from Axol Bioscience Ltd (Cambridge, UK). Cells were thawed and grown on matrigel coated glass coverslips in Cardiomyocyte Maintenance Medium (Axol Bioscience). […] The internal solution was composed (in mM) of 120 KF, 10 HEPES, 11 EGTA, 1 CaCl2, 1 MgCl2, 10 TEA-Cl (pH 7.2 adjusted with KOH). Sodium currents were recorded at a holding potential of −100 mV and depolarized to −20 mV. Cells were incubated with example compounds until currents reached a steady-state level. To determine IC50 values, example compounds were applied gradually from low to high concentrations. The current responses were normalized to the control, percent inhibition was calculated and a sigmoidal dose response curve was plotted to determine IC50 values as described above.

T3 sequence (Q14524 whole entry): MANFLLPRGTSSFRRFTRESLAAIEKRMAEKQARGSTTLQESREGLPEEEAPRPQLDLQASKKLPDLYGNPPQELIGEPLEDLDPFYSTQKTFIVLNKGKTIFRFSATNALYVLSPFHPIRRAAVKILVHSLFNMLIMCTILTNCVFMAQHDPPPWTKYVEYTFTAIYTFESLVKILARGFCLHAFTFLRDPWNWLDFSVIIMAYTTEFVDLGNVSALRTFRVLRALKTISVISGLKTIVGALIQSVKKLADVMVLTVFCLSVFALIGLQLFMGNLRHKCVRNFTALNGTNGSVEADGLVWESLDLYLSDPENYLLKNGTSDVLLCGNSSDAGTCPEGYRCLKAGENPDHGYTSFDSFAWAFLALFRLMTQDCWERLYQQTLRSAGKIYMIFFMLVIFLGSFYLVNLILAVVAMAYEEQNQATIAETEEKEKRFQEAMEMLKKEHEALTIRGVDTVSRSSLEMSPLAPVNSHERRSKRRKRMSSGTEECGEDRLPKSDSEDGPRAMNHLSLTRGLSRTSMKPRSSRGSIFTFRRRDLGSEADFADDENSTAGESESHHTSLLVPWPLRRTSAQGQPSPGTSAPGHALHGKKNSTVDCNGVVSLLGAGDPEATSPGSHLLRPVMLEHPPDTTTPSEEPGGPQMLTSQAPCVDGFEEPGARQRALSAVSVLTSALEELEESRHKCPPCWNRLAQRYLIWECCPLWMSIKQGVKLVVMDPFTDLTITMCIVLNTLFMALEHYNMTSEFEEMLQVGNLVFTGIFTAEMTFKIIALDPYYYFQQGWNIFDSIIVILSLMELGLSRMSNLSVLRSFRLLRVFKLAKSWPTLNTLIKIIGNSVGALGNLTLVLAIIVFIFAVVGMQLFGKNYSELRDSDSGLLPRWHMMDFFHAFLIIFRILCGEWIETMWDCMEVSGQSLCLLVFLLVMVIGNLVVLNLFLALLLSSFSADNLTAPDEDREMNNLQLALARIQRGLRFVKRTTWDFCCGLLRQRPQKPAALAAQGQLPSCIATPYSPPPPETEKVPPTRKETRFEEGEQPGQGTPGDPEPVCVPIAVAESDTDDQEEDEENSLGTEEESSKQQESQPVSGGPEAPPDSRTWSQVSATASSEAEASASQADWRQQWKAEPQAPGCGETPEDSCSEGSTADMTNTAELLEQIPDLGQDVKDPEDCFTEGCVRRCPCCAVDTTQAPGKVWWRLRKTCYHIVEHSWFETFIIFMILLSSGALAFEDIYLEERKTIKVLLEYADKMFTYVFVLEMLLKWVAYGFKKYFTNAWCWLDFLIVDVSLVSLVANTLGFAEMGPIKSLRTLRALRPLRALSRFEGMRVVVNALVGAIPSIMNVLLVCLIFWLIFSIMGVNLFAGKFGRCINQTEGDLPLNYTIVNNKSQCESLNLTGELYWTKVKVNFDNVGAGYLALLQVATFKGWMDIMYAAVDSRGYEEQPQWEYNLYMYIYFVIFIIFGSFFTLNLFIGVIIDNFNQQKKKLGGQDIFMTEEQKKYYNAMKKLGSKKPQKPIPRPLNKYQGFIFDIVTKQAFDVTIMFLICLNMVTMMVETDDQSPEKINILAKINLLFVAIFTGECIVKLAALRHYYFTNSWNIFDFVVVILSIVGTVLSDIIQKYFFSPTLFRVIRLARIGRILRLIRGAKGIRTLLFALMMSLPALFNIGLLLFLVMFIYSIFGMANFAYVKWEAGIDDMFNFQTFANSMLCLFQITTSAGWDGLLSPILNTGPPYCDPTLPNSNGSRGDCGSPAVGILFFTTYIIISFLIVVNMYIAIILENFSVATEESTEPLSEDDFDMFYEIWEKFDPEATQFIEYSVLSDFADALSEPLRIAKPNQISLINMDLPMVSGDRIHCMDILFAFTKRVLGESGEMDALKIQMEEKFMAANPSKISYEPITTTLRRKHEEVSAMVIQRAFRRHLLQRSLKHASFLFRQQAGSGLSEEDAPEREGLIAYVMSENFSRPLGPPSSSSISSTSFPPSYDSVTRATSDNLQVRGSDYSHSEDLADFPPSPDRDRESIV
T2 sequence (Q9P0X4 whole entry, species assumed): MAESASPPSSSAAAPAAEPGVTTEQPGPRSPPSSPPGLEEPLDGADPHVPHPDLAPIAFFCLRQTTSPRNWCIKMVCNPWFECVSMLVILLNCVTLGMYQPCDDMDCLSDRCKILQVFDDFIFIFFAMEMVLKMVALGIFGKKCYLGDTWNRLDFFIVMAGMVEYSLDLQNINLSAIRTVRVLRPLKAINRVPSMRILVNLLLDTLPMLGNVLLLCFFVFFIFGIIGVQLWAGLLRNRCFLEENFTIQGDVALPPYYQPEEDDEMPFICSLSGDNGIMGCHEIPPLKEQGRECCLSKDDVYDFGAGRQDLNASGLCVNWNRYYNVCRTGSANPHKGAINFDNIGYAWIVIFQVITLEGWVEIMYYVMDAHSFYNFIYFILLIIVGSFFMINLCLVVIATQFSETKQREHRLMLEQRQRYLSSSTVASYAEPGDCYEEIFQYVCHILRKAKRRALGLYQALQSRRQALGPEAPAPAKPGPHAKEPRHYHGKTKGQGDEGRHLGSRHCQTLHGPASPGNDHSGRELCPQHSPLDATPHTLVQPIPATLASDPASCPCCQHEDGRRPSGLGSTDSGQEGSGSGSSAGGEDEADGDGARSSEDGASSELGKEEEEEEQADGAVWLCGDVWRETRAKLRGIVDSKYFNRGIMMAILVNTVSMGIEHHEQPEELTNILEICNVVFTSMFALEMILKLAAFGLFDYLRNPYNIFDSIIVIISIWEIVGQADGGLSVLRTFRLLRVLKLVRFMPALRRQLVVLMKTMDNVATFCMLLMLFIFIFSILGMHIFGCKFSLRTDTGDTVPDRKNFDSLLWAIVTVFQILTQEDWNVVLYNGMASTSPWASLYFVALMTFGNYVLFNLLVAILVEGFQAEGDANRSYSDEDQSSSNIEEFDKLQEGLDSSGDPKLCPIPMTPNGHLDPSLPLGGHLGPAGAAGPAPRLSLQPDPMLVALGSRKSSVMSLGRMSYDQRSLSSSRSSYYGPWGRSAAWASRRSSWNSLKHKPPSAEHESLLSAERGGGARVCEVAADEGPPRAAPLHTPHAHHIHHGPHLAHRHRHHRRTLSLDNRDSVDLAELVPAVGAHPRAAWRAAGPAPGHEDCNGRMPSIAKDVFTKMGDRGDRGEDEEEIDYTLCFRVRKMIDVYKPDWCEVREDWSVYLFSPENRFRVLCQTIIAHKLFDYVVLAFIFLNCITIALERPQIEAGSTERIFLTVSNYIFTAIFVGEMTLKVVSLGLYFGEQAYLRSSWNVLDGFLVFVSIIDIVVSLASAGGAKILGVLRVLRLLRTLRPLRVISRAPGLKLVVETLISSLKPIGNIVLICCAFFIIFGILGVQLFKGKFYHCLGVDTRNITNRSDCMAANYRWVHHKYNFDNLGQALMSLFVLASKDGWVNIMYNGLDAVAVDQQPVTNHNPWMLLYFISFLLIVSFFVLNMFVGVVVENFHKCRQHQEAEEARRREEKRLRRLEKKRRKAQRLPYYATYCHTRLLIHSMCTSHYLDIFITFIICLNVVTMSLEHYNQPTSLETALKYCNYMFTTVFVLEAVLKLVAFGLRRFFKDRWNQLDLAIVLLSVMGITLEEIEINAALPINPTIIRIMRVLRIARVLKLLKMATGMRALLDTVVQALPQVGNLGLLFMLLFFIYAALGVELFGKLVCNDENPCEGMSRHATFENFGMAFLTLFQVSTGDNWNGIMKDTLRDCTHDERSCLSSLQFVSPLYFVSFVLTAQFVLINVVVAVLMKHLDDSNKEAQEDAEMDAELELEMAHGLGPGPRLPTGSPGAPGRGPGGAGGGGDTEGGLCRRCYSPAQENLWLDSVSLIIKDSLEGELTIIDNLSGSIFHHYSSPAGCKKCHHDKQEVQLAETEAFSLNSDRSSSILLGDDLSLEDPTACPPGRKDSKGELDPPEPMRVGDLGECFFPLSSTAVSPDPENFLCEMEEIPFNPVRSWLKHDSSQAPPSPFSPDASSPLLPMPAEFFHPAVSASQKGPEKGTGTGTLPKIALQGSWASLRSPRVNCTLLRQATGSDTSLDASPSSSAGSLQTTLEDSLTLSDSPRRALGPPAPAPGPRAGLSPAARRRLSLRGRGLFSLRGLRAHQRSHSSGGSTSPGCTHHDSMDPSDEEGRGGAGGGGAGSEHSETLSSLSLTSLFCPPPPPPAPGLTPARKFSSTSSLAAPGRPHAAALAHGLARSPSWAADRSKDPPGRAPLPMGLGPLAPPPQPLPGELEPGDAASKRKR

Row | SMILES | pIC50 (Cav3.1) | pIC50 (Cav3.3) | pIC50 (DRG ion channels Na+) | pIC50 (DRG ion channels K+) | pIC50 (Cardiac Na+ channels) | inhibition at 3 µM (Cardiac Na+ channels; 3 μM, values in brackets, read-out: Cardiac Na+ (%) inh. at 3 μM) [%]
1 | CC(C)(C)NC(=O)CN1CCC2(CC1)C[C@H]2NC(=O)c1cc(Cl)cc(Cl)c1 (single isomer, unassigned) [Example 57, (R)—N-(6-(2-(tert-Butylamino)-2-oxoethyl)-6-azaspiro[2.5]octan-1-yl)-3,5-dichlorobenzamide or (S)—N-(6-(2-(tert-Butylamino)-2-oxoethyl)-6-azaspiro[2.5]octan-1-yl)-3,5-dichlorobenzamide] | 6.89 | 7.01 | 4.43 | < 4.00 | 4.29 | 
2 | CC(C)(C)NC(=O)CN1CCC2(CC1)CC2NC(=O)c1cc(F)cc(Cl)c1 (single isomer, unassigned) [Example 128, (S)—N-(6-(2-(tert-Butylamino)-2-oxoethyl)-6-azaspiro[2.5]octan-1-yl)-3-chloro-5-fluorobenzamide or (R)—N-(6-(2-(tert-Butylamino)-2-oxoethyl)-6-azaspiro[2.5]octan-1-yl)-3-chloro-5-fluorobenzamide] | 7.22 | 6.12 | < 4.00 | < 4.00 | 4.08 | 
3 | CC(C)(C)NC(=O)CN1CCC2(CC1)C[C@H]2NC(=O)c1cc(F)cc(Cl)c1 (single isomer, unassigned) [Example 129, (R)—N-(6-(2-(tert-Butylamino)-2-oxoethyl)-6-azaspiro[2.5]octan-1-yl)-3-chloro-5-fluorobenzamide or (S)—N-(6-(2-(tert-Butylamino)-2-oxoethyl)-6-azaspiro[2.5]octan-1-yl)-3-chloro-5-fluorobenzamide] | 5.98 | 5.79 | < 4.00 | < 4.00 |  | 
4 | CC(C)(C)NC(=O)CN1CCC2(CC1)C[C@H]2NC(=O)c1cc(F)cc(C(F)(F)F)c1 (single isomer, unassigned) [Example 130, (R)—N-(6-(2-(tert-Butylamino)-2-oxoethyl)-6-azaspiro[2.5]octan-1-yl)-3-fluoro-5-(trifluoromethyl)benzamide or (S)—N-(6-(2-(tert-Butylamino)-2-oxoethyl)-6-azaspiro[2.5]octan-1-yl)-3-fluoro-5-(trifluoromethyl)benzamide] | 6.96 | 6.55 | < 4.00 | < 4.00 | 4.50 | 
5 | CC(C)(C)NC(=O)CN1CCC2(CC1)C[C@H]2C(=O)Nc1cc(C(F)(F)F)cc(C(F)(F)F)c1 (single isomer, unassigned) [Example 132, (R)—N-(3,5-Bis(trifluoromethyl)phenyl)-6-(2-(tert-butylamino)-2-oxoethyl)-6-azaspiro[2.5]octane-1-carboxamide or (S)—N-(3,5-Bis(trifluoromethyl)phenyl)-6-(2-(tert-butylamino)-2-oxoethyl)-6-azaspiro[2.5]octane-1-carboxamide] | 6.92 | 5.12 | 4.84 | < 4.00 | 4.29 | 
6 | CC(C)(C)NC(=O)CN1CCC2(CC1)C[C@H]2NC(=O)c1cc(C(F)(F)F)cc(C(F)(F)F)c1 (single isomer, unassigned) [Example 144, ((R)—N-(6-(2-(tert-butylamino)-2-oxoethyl)-6-azaspiro[2.5]octan-1-yl)-3,5-bis(trifluoromethyl)benzamide or (S)—N-(6-(2-(tert-butylamino)-2-oxoethyl)-6-azaspiro[2.5]octan-1-yl)-3,5-bis(trifluoromethyl)benzamide] | 7.40 | 6.60 | 4.46 | < 4.52 | 4.72 | 
7 | CC(C)(C)NC(=O)CN1CCC2(CC1)C[C@H]2NC(=O)C12CC3CC(CC(C3)C1)C2 (single isomer, unassigned) [Example 145, N—((R)-6-(2-(tert-butylamino)-2-oxoethyl)-6-azaspiro[2.5]octan-1-yl)adamantane-1-carboxamide or N—((S)-6-(2-(tert-butylamino)-2-oxoethyl)-6-azaspiro[2.5]octan-1-yl)adamantane-1-carboxamide] | 7.15 | 6.51 | < 4.52 | < 4.52 |  | 0
8 | CC(C)(C)CCN1CCC2(CC1)C[C@H]2NC(=O)c1cc(C(F)(F)F)cc(C(F)(F)F)c1 (single isomer, unassigned) [Example 146, (R)—N-(6-(3,3-dimethylbutyl)-6-azaspiro[2.5]octan-1-yl)-3,5-bis(trifluoromethyl)benzamide or (S)—N-(6-(3,3-dimethylbutyl)-6-azaspiro[2.5]octan-1-yl)-3,5-bis(trifluoromethyl)benzamide] | 6.92 | 6.96 | 5.06 | < 4.00 | 4.56 | 
9 | CC(C)(C)CCN1CCC2(CC1)C[C@H]2NC(=O)c1cc(C(F)(F)F)ccc1Cl (single isomer, unassigned) [Example 147, (R)-2-Chloro-N-(6-(3,3-dimethylbutyl)-6-azaspiro[2.5]octan-1-yl)-5-(trifluoromethyl)benzamide or (S)-2-Chloro-N-(6-(3,3-dimethylbutyl)-6-azaspiro[2.5]octan-1-yl)-5-(trifluoromethyl)benzamide] | 5.62 | 5.80 | 4.84 | < 4.00 | 4.37 | 
10 | CC(C)(C)NC(=O)CN1CCC2(CC1)CC2NC(=O)c1cc(F)cc(Cl)c1 (stereo not drawn) [Example 17, N-(6-(2-(tert-Butylamino)-2-oxoethyl)-6-azaspiro[2.5]octan-1-yl)-3-chloro-5-fluorobenzamide] | 6.54 | 6.54 | < 4.00 | < 4.00 |  | 

Reference: patent publication US10562857B2 (AFASCI, Inc., priority 2015, dated 2020)
